{
  "source": "patent US6569902B2",
  "about": "“Nitrone inhibition of cancer development” (Oklahoma Medical Research Foundation, priority 2000, dated 2003)",
  "key": {"[1]": {"tested_on": "livers of male Wistar rats fed the CDAA diet", "assay": "Example 2: histological liver injury (fibrosis, fatty liver)", "type": "in vivo, rat", "conditions": "high dose 0.090%, CDAA diet 16 weeks", "description": "(§1) Animal experiment. After acclimation, rats were divided equally into 22 groups consisting of 5 animals each. Animals in group 1 received the CDAA diet alone. […] Groups 5-7, 8-10, 11-13 and 14-16 received the CDAA diet containing the low, middle, and high doses of 4-OHPBN, 3-OHPBN, 2-OHPBN and 2-SPBN, respectively. Group 17 received the CSAA diet alone. […] All animals were sacrificed by exsanguination under light ether anesthesia 16 weeks after commencement, and the livers excised. Slices 5-mm-thick were taken from the left lateral, median and right lateral lobes of the livers, fixed in 10% neutrally-buffered formalin for 24 hours and then embedded in paraffin. Five serial 4-μm-thick sections were prepared from each fixed liver slice and used for histological and immunohistochemical assessment as described below. The remaining portions of the livers were immediately frozen under liquid nitrogen and stored at −80° C. until use.\n(§2) Histological and immunohistochemical assessments. Histological assessment was performed using sections routinely stained with hematoxylin/eosin and Masson's trichrome procedures. Gradation of fibrosis was quantitatively evaluated in groups 1, 4, 7, 10, 13, 16 and 17 by calculating the percent area occupied by collagen fiber stained blue by Masson's trichrome method using an IPAP image analyzing system (Sumika Technoservice Corp., City of Osaka, Osaka, Japan). GST-P-positive lesions were visualized immunohistochemically. Lesions consisting of more than 6 cells were quantified using the IPAP system as described elsewhere (Kishida et al. 2000). The amount of apoptosis and the cellular proliferative activity were determined in groups 1, 4, 7, 10, 13, 16 and 17, using the double staining techniques by combination of the GST-P immunohistochemistry as above with the in situ terminal deoxynucleotidyl transferase-mediated dUTP-biotin nick end-labeling method (Gold et al. 1994) and the enhanced polymer one-step staining method for proliferating cell nuclear antigen (Tsutsumi et al. 1995), respectively. Numbers of apoptotic and proliferating hepatocytes among the 1000-5000 hepatocytes in GST-P-positive lesions and 5000 hepatocytes in surrounding tissue were counted under light microscopy to obtain percentages that are hereafter referred as apoptotic and proliferative indices, respectively.\n(§3) Statistics. Inter-group differences in quantitative data for multiple groups were recognized to be significant, when p values smaller than 0.05 were obtained by the Dunnett multiple comparison test employed after one-way analysis of variance to determine the variation among the group means followed by the Bartlett's test to determine the homogeniety of variance."}, "[2]": {"tested_on": "male Wistar rats fed the CDAA diet", "assay": "Example 1 main study: hepatocarcinogenesis (HCA, HCC, fibrosis) in rats fed the CDAA diet for 70 weeks", "type": "in vivo, rat", "description": "Animals, diets and chemical. The protocols were approved prior to the experiments by the Animal Experimentation committee at Nara Medical University according to the Guidelines on Animal Experiments in accordance with Japanese Government Animal Protection and Management Law Number 105 and Japanese Government Notification on Feeding and Safekeeping of Animals Number 6. Male Wistar rats, 6 weeks old, were purchased from JapanSLC, Inc., Hamamatsu, Shizuoka, Japan. Rats were housed 5 each to a plastic cage with white flake bedding (Kansai Animal Corp., City of Kyoto, Kyoto, Japan) in an air-conditioned room (25±3° C. temperature, 55 ±8% relative humidity, 10-12/h ventilation and 12-h dark/light cycle). Rats were used for the experimentation after a 1-week acclimation on a basal diet (CE-1, Clea Japan, Meguro, Tokyo, Japan) and allowed free access to food and tap water throughout the acclimation and experimental periods. Body weight, food consumption and water intake were monitored weekly. The CDAA diet and a control CSAA diet were obtained from Dyets Inc., Bethlehem, PA.\nMain study. A total of 60 rats were equally divided into 6 groups. Group 1 received the CDAA diet for 70 weeks. […] The time-point of 26 weeks after the commencement, when treatments were changed in groups 3 and 4, was decided according to the results of the pilot study (see the Results and Discussion section below). All surviving rats were sacrificed 70 weeks after the commencement, and the livers were taken. Two serial 4-μm-thick, 10%-neutrally-buffered-folmalin-fixed 9 for 24 h), paraffin-embedded liver specimens were prepared and stained routine H&E and Masson's trichrome procedures. The H&E-stained liver specimens were histologically examined according to the aforementioned criteria (Maronpot et al. 1986), and the incidences of HCA and HCC were determined. Grade of fibrosis were evaluated by analyzing percent area occupied by collagen fiber in the Masson's trichrome-stained liver specimens using an IPAP image analyzing system (Sumika Technoservice, Corp., City of Osaka, Osaka, Japan).\nStatistical analyses. Statistical analyses were carried out using an InStat software (GraphPad Software, Inc., San Diego, Cali.). Fisher's exact test was used to assess statistical significance of inter-group differences of the lesion incidences. Student-Newrnan-Keuls multiple comparison test was used to assess statistical significance of inter-group differences of means after one-way ANOVA to determine variations among group means, followed by Bartlett's test to determine homogeneity of variance."}, "rats fed the CDAA diet": {"tested_on": "rats fed the CDAA diet", "conditions": "cited from earlier work; for size of neoplastic nodules: 12 weeks, CDAA only 1.92; for nodule number: CDAA only 190"}, "[3]": {"tested_on": "GST-P-positive lesions in livers of male Wistar rats fed the CDAA diet", "assay": "Example 2: numbers and sizes of GST-P-positive liver lesions, CDAA diet for 16 weeks", "type": "in vivo, rat", "conditions": "high dose 0.090% in CDAA diet", "description": "Animals. A total of 110 male Wistar rats were obtained at 5 weeks of age from Charles River Japan, Inc., Atsugi, Kanagawa, Japan. Experimentation began after a 1-week acclimation on a basal diet (CE-2 diet, Clea Japan, Meguro, Tokyo, Japan). Rats were housed 5 each in plastic cages with white flake bedding (Kansai Animal Corp., City of Kyoto, Kyoto, Japan) in a standard atmosphere (temperature, 25±3° C.; relative humidity, 55±8%; ventilation, 10-15/hour; and a 12-hour dark/light cycle). Free access to food and tap water was allowed throughout the acclimation and experimental periods.\nDiets and chemicals. The CDAA diet and its control, a choline-supplemented, L-amino acid-defined (CSAA) diet (Nakae et al. 1992; and Nakae et al. 1990) were obtained from Dyets, Inc., Bethlehem, Pa. […] 2-Sulfoxy-PBN (2-SPBN) was purchased from Aldrich Chemical Co. (Milwaukee, Wis.).\nas §1, §2, §3"}, "[4]": {"conditions": "group 2: CDAA diet with PBN 0.065% in drinking water for 70 weeks, CDAA alone 57.1%"}, "[5]": {"conditions": "group 3: CDAA with PBN for first 26 weeks, then CDAA alone 44 weeks"}, "[6]": {"conditions": "group 4: CDAA alone 26 weeks, then CDAA with PBN for last 44 weeks"}, "[7]": {"conditions": "group 6: CSAA control diet with PBN 70 weeks (stated for groups 5 or 6)"}},
  "note": "Like-named read-outs stand apart in the source and are kept apart here.",
  "data": [
    {"smiles": "CC(C)(C)[N+]([O-])=Cc1ccccc1", "note": "[PBN, phenyl N-tert-butyl nitrone]", "values": [
      {"measurement": "grade of fibrosis versus group 1", "setting": "[1]", "value": "significantly lower"},
      {"measurement": "carcinogenicity of PBN itself", "setting": "[2]; 70-week study, PBN in drinking water", "value": "not carcinogenic itself"},
      {"measurement": "HCA incidence", "setting": "[2]; [4]", "value": 25.0, "unit": "%"},
      {"measurement": "HCC incidence", "setting": "[2]; [4]", "value": 25.0, "unit": "%"},
      {"measurement": "grade of fibrosis, percent of liver specimen occupied by fiber", "setting": "[2]; group 2: PBN 70 weeks, group 1 (CDAA alone) 13.32%", "value": 9.95, "unit": "%"},
      {"measurement": "HCA incidence", "setting": "[2]; [5]", "value": 28.6, "unit": "%"},
      {"measurement": "HCC incidence", "setting": "[2]; [5]", "value": 0, "unit": "%"},
      {"measurement": "grade of fibrosis, percent of liver specimen occupied by fiber", "setting": "[2]; group 3: PBN first 26 weeks, group 1 13.32%", "value": 8.71, "unit": "%"},
      {"measurement": "HCA incidence", "setting": "[2]; [6]", "value": 62.5, "unit": "%"},
      {"measurement": "HCC incidence", "setting": "[2]; [6]", "value": 0, "unit": "%"},
      {"measurement": "grade of fibrosis, percent of liver specimen occupied by fiber", "setting": "[2]; group 4: PBN last 44 weeks, group 1 13.32%", "value": 12.86, "unit": "%"},
      {"measurement": "grade of fibrosis", "setting": "[2]; group 6: CSAA control diet with PBN 70 weeks (one value stated for groups 5 or 6)", "value": 1.61, "unit": "%"},
      {"measurement": "HCA incidence", "setting": "[2]; [7]", "value": 0, "unit": "%"},
      {"measurement": "HCC incidence", "setting": "[2]; [7]", "value": 0, "unit": "%"},
      {"measurement": "size of neoplastic nodules", "setting": "rats fed the CDAA diet; CDAA plus PBN 6 mg/kg-day", "value": 0.33, "unit": "mm^3"},
      {"measurement": "size of neoplastic nodules", "setting": "rats fed the CDAA diet; CDAA plus PBN 30 mg/kg-day", "value": 0.17, "unit": "mm^3"},
      {"measurement": "size of neoplastic nodules", "setting": "rats fed the CDAA diet; CDAA plus PBN 60 mg/kg-day", "value": 0.10, "unit": "mm^3"},
      {"measurement": "nodule number", "setting": "rats fed the CDAA diet; PBN 6 mg/kg-day", "value": 170, "unit": "per mm^3"},
      {"measurement": "nodule number", "setting": "rats fed the CDAA diet; PBN 30 mg/kg-day", "value": 149, "unit": "per mm^3"},
      {"measurement": "nodule number", "setting": "rats fed the CDAA diet; PBN 60 mg/kg-day", "value": 142, "unit": "per mm^3"},
      {"measurement": "reduction of the amount of PGE2 in the CD-livers", "setting": "rats fed the CDAA diet; highest dose", "value": "about 50%"},
      {"measurement": "decrease of nodule size", "setting": "rats fed the CDAA diet; highest level of PBN", "value": 95, "unit": "%"},
      {"measurement": "8-OHdG content (marker of DNA oxidation) in the CD-livers", "setting": "rats fed the CDAA diet; increasing concentrations of PBN", "value": "reduced"},
      {"measurement": "decrease of nodule size", "setting": "rats fed the CDAA diet; lowest level of PBN (6 mg/kg)", "value": 83, "unit": "%"},
      {"measurement": "decrease of nodule number", "setting": "rats fed the CDAA diet; lowest level of PBN", "value": 11, "unit": "%"},
      {"measurement": "effect on COX-II expression", "setting": "rats fed the CDAA diet; mRNA or protein level", "value": "no effect"},
      {"measurement": "connective tissue proliferation", "setting": "rats fed the CDAA diet; rat, in vivo", "value": "significantly reduced"},
      {"measurement": "number of GST-P-positive lesions, % of the group 1 value", "setting": "[3]", "value": 52, "unit": "%"},
      {"measurement": "sizes of GST-P-positive lesions, % of the group 1 value", "setting": "[3]", "value": 19, "unit": "%"}
    ]}
  ]
}
